Columns and labels:
[1] = tested on: human liver cancer cell line SMMC-7721 cells; experiment: In vivo efficacy test in mice transplanted with SMMC-7721 cells; details: for Cancer weight: babl/c-nu mice with SMMC-7721 cells; for Percentage (%) of inhibition of cancer growth: from cancer weight vs cancer model group
Protocol: Human liver cancer cell line SMMC-7721 cells (purchased from the Shanghai Cell Bank of Chinese Academy of Sciences) were incubated in RPMI-1640 medium supplemented with 10% FBS, 50 U/ml penicillin, and 50 μg/ml streptomycin in an incubator under conditions of 37° C., 5% CO2, and 95% air. The medium was exchanged every three days.
(§1) The mice were allowed free access to food and water, and were bred in a 12-hr light/12-hr dark cycle.
The twenty five mice were subcutaneously inoculated into the neck site with SMMC-7721 cells at 2×10^7 cells per mouse, and bred for 7 days. […] 5-Fluorouracil (5-FU), which is used as an anticancer drug, was treated for a positive control group.
Cancer tissues were isolated from the mice after seven days of administration of the drug for each group, and visually observed. Cancer weights were measured. In addition, the inhibition of cancer growth was calculated on the basis of the measured weights of the cancer tissues by using the following equation. Percentage of inhibition of cancer growth=(1−(sample treatment group/cancer model group))×100

[2] = tested on: human liver cancer cells HCCLM3; experiment: MTT cell proliferation assay, HCCLM3 cells; type: cell-based
Protocol: (§2) Fetal bovine serum (FBS) and cell culture medium were prepared (Hyclone), and dimethyl sulfoxide (DMSO) and 3-(4,5-dimethyl-thiazol-2yl)-2,5-diphenyltetrazolium bromide (MTT, Amresco LLC, USC) were prepared.
(§3) As human cancer cell lines, human liver cancer cells SMMC-7721 and HCCLM3 were obtained from the Shanghai Cell Bank of Chinese Academy of Sciences. The SMMC-7721 cells were incubated in RPMI-1640 medium supplemented with 10% FBS, 50 U/ml penicillin, and 50 μg/ml streptomycin and the HCCLM3 cells were incubated in Dulbecco's modified Eagle's medium (DMEM) supplemented with 10% FBS, 100 U/ml penicillin, and 100 μg/ml streptomycin in a humidified incubator with 5% CO2 and 95% air. […]
(§4) The effects of Example 1 and Comparative Examples 1 to 3 on cell proliferation were assessed using MTT assay. […] All the crystals were completely dissolved by standing at room temperature for 15 minutes, and the absorbance was measured using a micro-plate reader at a wavelength of 570 nm (A570nm).
(§5) The absorbance value of the control group treated without the sample was calculated as 100, and the absorbance value of the treatment group treated with the sample, compared with that of the control group, was calibrated, and the percentage of inhibition of cell proliferation was calculated according to the following equation. […]
(§6) All data were expressed as mean±standard error of the mean (mean±SEM). […]

[3] = tested on: human liver cancer cells SMMC-7721; experiment: MTT cell proliferation assay, SMMC-7721 cells; type: cell-based
Protocol: as §2, §3, §4, §5, §6

[4] = tested on: human liver cancer cell line H22 cells; experiment: In vivo efficacy test in mice transplanted with H22 cells; details: from cancer volume vs cancer model group
Protocol: (§7) Human liver cancer cell line H22 cells (purchased from the Shanghai Cell Bank of Chinese Academy of Sciences) were incubated in RPMI-1640 medium supplemented with 10% FBS, 100 U/ml penicillin, and 100 μg/ml streptomycin in an incubator under conditions of 37° C., 5% CO2, and 95% air. The medium was exchanged every three days.
as §1
(§8) Out of the 50 mice, 10 mice were classified as the normal group, and the remaining 40 animals were subcutaneously inoculated with H22 cells at 1×10^7 cells per mouse, and bred for 7 days. […] 5-Fluorouracil (5-FU), which is used as an anticancer drug, was treated for a positive control group.
(§9) After the administration of the drug for each group, cancer sizes were measured daily using a Vernier caliper, and cancer volumes were calculated using the equation V=0.5×ab^2 (a is the longest diameter of cancer and b is the shortest diameter of cancer). In addition, the inhibition of cancer volume according to the number of days of administration was calculated by the following equation. Percentage of inhibition of cancer growth=(1−(sample treatment group/cancer model group))×100

[5] = as above; details: ICR mice with H22 cells
Protocol: as §7, §1, §8, §9

[6] = Test Group 1, 4.5 mg/kg oral daily for 7 days
[7] = Test Group 2, 2.25 mg/kg oral daily for 7 days
[8] = Test Group 3, 1.125 mg/kg oral daily for 7 days
[9] = Test Group 1, 4.5 mg/kg oral daily, 5 days
[10] = Test Group 1, 4.5 mg/kg oral daily, 7 days
[11] = Test Group 1, 4.5 mg/kg oral daily, 9 days
[12] = Test Group 1, 4.5 mg/kg oral daily, 11 days
[13] = Test Group 2, 2.25 mg/kg oral daily, 5 days
[14] = Test Group 2, 2.25 mg/kg oral daily, 7 days
[15] = Test Group 2, 2.25 mg/kg oral daily, 9 days
[16] = Test Group 2, 2.25 mg/kg oral daily, 11 days
[17] = Positive control group, 20 mg/kg oral daily for 7 days
[18] = Positive control group, 20 mg/kg oral daily, 5 days
[19] = Positive control group, 20 mg/kg oral daily, 7 days
[20] = Positive control group, 20 mg/kg oral daily, 9 days
[21] = Positive control group, 20 mg/kg oral daily, 11 days

tetraarsenic hexoxide [Example 1]
Cancer weight [1, 6]: 0.65 ± 0.17 g | Percentage (%) of inhibition of cancer growth [1, 6]: 39.7% | Cancer weight [1, 7]: 0.70 ± 0.10 g | Percentage (%) of inhibition of cancer growth [1, 7]: 34.3% | Cancer weight [1, 8]: 0.77 ± 0.12 g | Percentage (%) of inhibition of cancer growth [1, 8]: 28.0% | Tumor tissue sizes (visual observation) ([1]; isolated cancer tissues after 7 days of oral administration, FIG. 6): reduced | Percentage of inhibition of HCCLM3 cell proliferation compared with Comparative Example 1 ([2]; incubation for 48 hours and 72 hours, 0.625-80 μM, FIGS. 3A-B): higher | Percentage of inhibition of HCCLM3 cell proliferation compared with Comparative Example 2 or 3 ([2]; mixtures of Example 1 and Comparative Example 1 at 4:1 or 1:1, FIGS. 3A-B): higher | Percentage of inhibition of SMMC-7721 cell proliferation compared with Comparative Example 1 ([3]; incubation for 48 hours and 72 hours, 0.625-80 μM, FIGS. 2A-B): higher | Percentage of inhibition of SMMC-7721 cell proliferation compared with Comparative Example 2 or 3 ([3]; mixtures of Example 1 and Comparative Example 1 at 4:1 or 1:1, FIGS. 2A-B): higher | Percentage (%) of inhibition of cancer growth [4, 9]: 25.06% | Percentage (%) of inhibition of cancer growth [4, 10]: 40.36% | Percentage (%) of inhibition of cancer growth [4, 11]: 41.50% | Percentage (%) of inhibition of cancer growth [4, 12]: 51.42% | Percentage (%) of inhibition of cancer growth [4, 13]: 3.36% | Percentage (%) of inhibition of cancer growth [4, 14]: 24.23% | Percentage (%) of inhibition of cancer growth [4, 15]: 41.54% | Percentage (%) of inhibition of cancer growth [4, 16]: 45.52% | Cancer volume according to number of days of administration [5, 9]: 168.09 mm^3 | Cancer volume according to number of days of administration [5, 10]: 238.22 mm^3 | Cancer volume according to number of days of administration [5, 11]: 388.85 mm^3 | Cancer volume according to number of days of administration [5, 12]: 880.55 mm^3 | Cancer volume according to number of days of administration [5, 13]: 216.75 mm^3 | Cancer volume according to number of days of administration [5, 14]: 302.66 mm^3 | Cancer volume according to number of days of administration [5, 15]: 388.56 mm^3 | Cancer volume according to number of days of administration [5, 16]: 987.61 mm^3

O=c1[nH]cc(F)c(=O)[nH]1 [5-Fluorouracil, reference compound]
Cancer weight [1, 17]: 0.72 ± 0.27 g | Percentage (%) of inhibition of cancer growth [1, 17]: 32.5% | Percentage (%) of inhibition of cancer growth [4, 18]: 26.16% | Percentage (%) of inhibition of cancer growth [4, 19]: 46.73% | Percentage (%) of inhibition of cancer growth [4, 20]: 52.15% | Percentage (%) of inhibition of cancer growth [4, 21]: 63.48% | Cancer volume according to number of days of administration [5, 18]: 165.62 mm^3 | Cancer volume according to number of days of administration [5, 19]: 212.78 mm^3 | Cancer volume according to number of days of administration [5, 20]: 318.07 mm^3 | Cancer volume according to number of days of administration [5, 21]: 661.97 mm^3

Reference: patent US11154530B2, “Pharmaceutical composition for treating liver cancer, comprising tetraarsenic hexoxide crystalline polymorph” (CHEMAS CO., LTD., priority 2016, dated 2021)
